{"source": "ChEMBL document CHEMBL3301361", "about": "“Experimental in vitro DMPK and physicochemical data on a set of publicly disclosed compounds”"}
{"test": "physchem", "conditions": "octan-1-ol/water, pH 7.4"}
{"smiles": "C=C(C)[C@H]1Cc2c(ccc3c2O[C@@H]2COc4cc(OC)c(OC)cc4[C@@H]2C3=O)O1", "note": "[ROTENONE]", "logD": 3.57}
{"smiles": "Cc1ccnc(NCc2ccc(Cl)cc2)c1", "logD": 3.6}
{"smiles": "NC(=O)c1cccc(O[C@@H]2C[C@H]3CC[C@@H](C2)N3CCc2ccccc2)c1", "logD": 2}
{"smiles": "CN(C)C(=O)N[C@H]1CC[C@H](CCN2[C@@H]3CC[C@H]2C[C@@H](Oc2cccc(C(N)=O)c2)C3)CC1", "logD": 0.12}
{"smiles": "Cn1c(=O)n(Cc2ccc(Br)cc2)c2ccccc21", "logD": 2.81}
{"smiles": "CNC1=Nc2ncccc2C(c2ccco2)=NC1c1cccs1", "note": "(stereo not drawn)", "logD": 1.85}
{"smiles": "COc1ccc(C(CN2CCCC2)N(C)C(=O)Cc2ccc(Cl)c(Cl)c2)c(OC)c1", "note": "(stereo not drawn)", "logD": 3.07}
{"smiles": "Cc1ccc(NC(=O)c2ccnc(N3CCOCC3)c2)cc1Nc1ccnc(N(C)C2CCN(C)CC2)n1", "logD": 1.8}
{"smiles": "CC(=O)Nc1ccc(S(=O)(=O)Nc2ccc(Cc3ccncc3)cc2)cc1", "logD": 2.8}
{"smiles": "Clc1ccc(C2CC=CCNC2)cc1Cl", "note": "(stereo not drawn)", "logD": 1.86}
{"smiles": "CCN(CC)C(=O)c1ccc(C2=CC3(CCNCC3)Oc3cccc(O)c32)cc1", "note": "[ADL-5859]", "logD": 0.54}
{"smiles": "Cc1cc(=O)[nH]c2sc(C(=O)c3ccc(Br)cc3)c(N)c12", "logD": 2.57}
{"test": "physchem", "conditions": "octan-1-ol/water, pH 7.4, LogD7.4"}
{"smiles": "NC(=O)Nc1sc(-c2cc(F)cc(F)c2)cc1C(=O)N[C@H]1CCCNC1", "logD": 2.18}
{"smiles": "Cc1cc2n[nH]c(=O)n2c2cc(-c3cccc(CO)c3)ccc12", "logD": 3.36}
{"smiles": "CCCCNc1nc(N)c2[nH]c(=O)n(Cc3ccc(OCCN(C)C)nc3)c2n1", "logD": 1.9}
{"smiles": "NC1(C(=O)NC(CO)c2ccc(Cl)cc2)CCN(c2ncnc3[nH]ccc23)CC1", "note": "(stereo not drawn)", "logD": 2.4}
{"smiles": "COCCC(=O)N(C)c1ccc(Nc2ncc3cc(-c4ccncc4)ccc3n2)cc1", "logD": 3.23}
{"smiles": "CNC(=O)c1cccc(S(=O)(=O)Nc2ncc(C)nc2OC)c1-c1ccc(CC(C)C)cc1", "logD": 1.68}
{"smiles": "O=C(NCC12CC3CC(CC(C3)C1)C2)c1ccccc1Br", "logD": 4.15}
{"smiles": "CC1(C)C(=O)Nc2ccccc21", "logD": 2.3}
{"smiles": "CC1(c2ccc(Cl)cc2)CCN(C(=O)COCc2ccncc2)CC1", "logD": 2.79}
{"smiles": "Cn1c(=O)c2c(-c3ccc(S(C)(=O)=O)o3)n(Cc3ccnc4ccc(Cl)cc34)nc2n(CC2CC2)c1=O", "logD": 2.71}
{"smiles": "c1ccc(-c2cc(NCCCCCCCCNc3cc(-c4ccccc4)nc4ccccc34)c3ccccc3n2)cc1", "logD": 2.27}
{"smiles": "COc1cc(N2CCN(C(C)=O)CC2)ccc1Nc1ncc(Cl)c(-c2cnc3c(C)cccn23)n1", "logD": 3.2}
{"smiles": "O=C(Oc1ccccc1)N1CCOCC1", "logD": 1.3}
{"smiles": "Cn1ccc2c(-c3nc(CS(C)(=O)=O)cc(N4CCOCC4)n3)cccc21", "logD": 2}
{"smiles": "c1cn(-c2ccc(Oc3cc(Oc4ccc5c(c4)OCO5)ncn3)cc2)cn1", "logD": 3.17}
{"smiles": "Nc1c2c(nc3c(-c4ncccn4)cccc13)CN(C1CCC1)C2=O", "logD": 1.85}
{"smiles": "CC(CNS(=O)(=O)C(C)C)c1ccc(-c2ccc(C#N)cc2)cc1", "note": "(stereo not drawn)", "logD": 3.5}
{"smiles": "CN[C@@H](C)C(=O)N[C@H](C(=O)N[C@H]1CCCN(CCc2ccc(OC)cc2)C1)C(C)(C)C", "logD": 1.45}
{"smiles": "CNc1cccc(CCOc2ccc(C[C@H](NC(=O)c3c(C)cc(C)cc3C)C(=O)O)cc2)n1", "logD": 0.52}
{"smiles": "CCN1CCC[C@@H](CN2CCN(C(=O)Nc3ccc(Cl)c(Cl)c3)CC2)C1", "logD": 1.94}
{"smiles": "CC(=O)O[C@@]12CO[C@@H]1C[C@H](O)[C@@]1(C)C(=O)[C@H](O)C3=C(C)[C@@H](OC(=O)[C@H](O)[C@@H](NC(=O)OC(C)(C)C)c4ccccc4)C[C@@](O)([C@@H](OC(=O)c4ccccc4)[C@H]21)C3(C)C", "note": "[DOCETAXEL]", "logD": 3.4}
{"smiles": "Cc1ccc(S(=O)(=O)c2ccccc2)cc1", "logD": 2.74}
{"smiles": "Cc1cc(CN2Cc3ccccc3C2C(=O)Nc2ccc(Cl)cc2)ccc1OCC(=O)O", "note": "(stereo not drawn)", "logD": 1.38}
{"smiles": "O=C(NS(=O)(=O)c1cccc(C(F)(F)F)c1)N1CCC(N2CCC(Oc3ccc(Cl)c(Cl)c3)CC2)CC1", "logD": 2.94}
{"smiles": "Cc1ncc(CO)c(CO)c1O", "note": "[PYRIDOXINE]", "logD": -0.58}
{"smiles": "Nc1cc2n[nH]c(=O)n2c2cc(-c3ccsc3)ccc12", "logD": 3.18}
{"smiles": "O=c1cc(N2CCOCC2)oc2c(-c3cccc4c5c(sc34)CCCC5)cccc12", "logD": 4.1}
{"smiles": "COc1ccc(COc2ccc(Cc3cnc(N)nc3N)cc2OC)cc1", "note": "[GW632580X]", "logD": 2.27}
{"smiles": "Cc1nnsc1C(=O)Nc1ccccc1", "logD": 0.97}
{"smiles": "O=C1C(=O)c2cccc([N+](=O)[O-])c2-c2ccccc21", "logD": 2.6}
{"smiles": "Brc1cc(Br)cc(COC[C@H](c2ccccc2)N2CCNCC2)c1", "logD": 2.8}
{"smiles": "CNS(=O)(=O)c1ccc2c(C(=O)NC[C@@H](O)CN3CCC(Oc4ccc(Cl)c(Cl)c4)CC3)c[nH]c(=O)c2c1", "logD": 2.77}
{"smiles": "CN1CC(=O)N2[C@H](c3ccc4c(c3)OCO4)c3[nH]c4ccccc4c3C[C@@H]2C1=O", "logD": 2.6}
{"smiles": "C[C@@H]1CN(c2noc(C(F)F)n2)CCN1c1ncc(OCc2ccncc2C#N)cn1", "logD": 2.85}
{"smiles": "CCCCc1ncc(/C=C(\\Cc2cccs2)C(=O)O)n1Cc1ccc(C(=O)O)cc1", "note": "[EPROSARTAN]", "logD": -0.9}
{"smiles": "Cc1cc(NC(=O)c2ccc(Cl)cc2)n(-c2ccccc2)n1", "logD": 3.25}
{"smiles": "C1=C(c2cc3ccccc3o2)C2CCN1CC2", "logD": 2.59}
{"smiles": "CC(C)(N)C(=O)N[C@H](Cc1c[nH]c2ccccc12)C(=O)N[C@H](Cc1c[nH]c2ccccc12)NC=O", "note": "[MACIMORELIN]", "logD": 1}
{"smiles": "CC(=O)Nc1cccc(Nc2ncnc(N3CCC(OCc4ccc(OC(F)(F)F)cc4)CC3)n2)c1C", "logD": 4.4}
{"smiles": "COc1cc2ncnc(Nc3ccncc3)c2cc1OC", "logD": 2.22}
{"smiles": "CCC(=O)NCC[C@@H]1CCc2ccc3c(c21)CCO3", "note": "[RAMELTEON]", "logD": 2.57}
{"smiles": "CCN(C(=O)Cc1ccc(C#N)cc1)C1CCN(CCC(c2ccccc2)c2ccccc2)CC1", "logD": 3.9}
{"smiles": "CC[C@H](NC(=O)c1c([S+](C)[O-])c(-c2ccccc2)nc2cc(Cl)ccc12)c1ccccc1", "note": "(stereo partly drawn)", "logD": 3.07}
{"smiles": "O=c1c(-c2ccc3c(c2)OCO3)coc2cc(O)cc(O)c12", "logD": 3.5}
{"smiles": "COc1cnc(-c2ccccn2)nc1Oc1ccc(F)cc1F", "logD": 3.1}
{"smiles": "Cc1cc(C)cc(-c2c(O)nc3cc(Cl)c(C(=O)Nc4ccncn4)cc3c2OCCC2CCCCN2)c1", "note": "(stereo not drawn)", "logD": 1.7}
{"smiles": "O=C(Cc1ccccn1)c1ccc(Cl)cc1", "logD": 2.96}
{"smiles": "O=C(NNc1cccc(Cl)c1)c1cccnc1Cl", "logD": 1.87}
{"smiles": "COC(=O)N1CCOc2cc(COc3ccccc3)cnc21", "logD": 2.5}
{"smiles": "Cn1cc(C#N)cc1-c1c2c(=O)n(CCO)c(=O)n(CC3CC3)c2nn1Cc1ccnc2ccc(Cl)cc12", "logD": 3}
{"smiles": "Cc1cc(C)c2c(N)c(C(=O)NCc3ccccc3)sc2n1", "logD": 3.41}
{"smiles": "Cc1ccccc1Cn1ccn2c(=O)cc(N3CCOCC3)nc12", "logD": 2.3}
{"smiles": "CNc1nc2nc(SCc3cccc(F)c3F)nc(N[C@H](C)CO)c2s1", "logD": 3.7}
{"smiles": "CC(=O)Nc1cccc(S(=O)(=O)Nc2ccc(-c3ccccc3)n(CC(=O)NC(C(=O)C(F)(F)F)C(C)C)c2=O)c1", "note": "(stereo not drawn)", "logD": 2.43}
{"smiles": "CCC(c1nc2snc(C)c2c(=O)n1Cc1ccccc1)N(CCCN)C(=O)c1ccc(C)cc1", "note": "(stereo not drawn)", "logD": 1.61}
{"smiles": "O=c1[nH]c2c(O)ccc([C@@H](O)CNCCCOCCOCCc3cccc4ccccc34)c2s1", "logD": 2.28}
{"smiles": "O=C1CCCc2nc(C#Cc3ccccc3)ccc21", "logD": 3.53}
{"smiles": "CC(C)C(NC(=O)Cn1c(-c2ccccc2)ccc(NC(=O)NCc2ccc[n+]([O-])c2)c1=O)C(=O)C(F)(F)F", "note": "(stereo not drawn)", "logD": 1.48}
{"smiles": "COc1cc(F)ccc1-c1cncc(CNC(=O)c2cnccn2)c1", "logD": 2.5}
{"smiles": "Cc1ccc(-c2cn(C)cn2)cc1NC(=O)c1ccc(OCc2ccccn2)cc1", "logD": 2.54}
{"smiles": "N=C(N)NC(=O)c1nc(Cl)c(NCc2ccncc2)nc1N", "logD": -0.51}
{"smiles": "O=S(=O)(Cc1cc(Cl)cc(Cl)c1)NCC(c1ccccc1)N1CCCCCC1", "note": "(stereo not drawn)", "logD": 3.23}
{"smiles": "Nc1ccc2c(c1)C(=O)C(=O)c1ccccc1-2", "logD": 2.23}
{"smiles": "Cc1c(Sc2ccc(Cl)cc2)c2cc(Cl)ccc2n1Cc1nnn[nH]1", "logD": 3.25}
{"smiles": "C(=C\\c1c(-c2ccccc2)nc2sccn12)/c1ccncn1", "logD": 3.4}
{"smiles": "C1=CCC(c2ccc3ccccc3c2)CNC1", "note": "(stereo not drawn)", "logD": 1.64}
{"smiles": "Nc1nc(-c2ccccc2)nc2c1nc(O)n2Cc1ccccc1", "logD": 4.16}
{"smiles": "Cc1ccc(CO)cc1N(C)c1ccnc(Nc2cc(OC3CCOCC3)cc(N3CCOCC3)c2)n1", "logD": 3.7}
{"smiles": "O=C(O)c1ccc(-c2nnn(Cc3ccccc3F)n2)cc1", "logD": 0.3}
{"smiles": "Nc1ccc(S(=O)(=O)N2CCCC2)cc1", "logD": 0.98}
{"smiles": "CS(=O)(=O)c1ccc(CC(=O)N(C2CC2)C2CCN(CCC(c3ccccc3)c3ccccc3)CC2)cc1", "logD": 2.89}
{"smiles": "Oc1ccc2nc(-c3ccccc3)sc2c1", "logD": 3.99}
{"smiles": "COc1ccc(-c2nc3c(NCC4CCNCC4)c(Br)cnc3[nH]2)cc1", "logD": 1.36}
{"smiles": "Cc1oc(-c2ccc(Cl)cc2)cc1C(=O)O", "logD": 1.67}
{"smiles": "O=C(c1cc(Cc2n[nH]c(=O)c3ccccc23)ccc1F)N1CCN(c2ccccn2)CC1", "logD": 2.55}
{"smiles": "CCCCC(NC(=O)CC1CCN(Cc2ccn(-c3ccc(C(F)(F)F)cc3)c2)CC1)c1ccc(=O)[nH]c1", "note": "(stereo not drawn)", "logD": 2.89}
{"smiles": "CNCC[C@@H](Oc1ccccc1C)c1ccccc1", "note": "[ATOMOXETINE]", "logD": 1.2}
{"smiles": "COc1cc(CNc2nc3ccccc3[nH]2)cc(OC)c1OC", "logD": 2.36}
{"smiles": "CCC(c1nc2ncccc2c(=O)n1Cc1ccccc1)N(CCCN)C(=O)c1ccc(C)cc1", "note": "(stereo not drawn)", "logD": -0.04}
{"smiles": "C1=CCC(c2cc3ccccc3o2)CNC1", "note": "(stereo not drawn)", "logD": 1.94}
{"smiles": "Nc1ccc2ncccc2c1", "logD": 1.33}
{"smiles": "C[Si](C)(C)C#Cc1cn(C[C@H]2CN(c3ccc(C4=CCS(=O)(=O)CC4)c(F)c3)C(=O)O2)nn1", "logD": 1.26}
{"smiles": "NC(=O)c1cnc(N[C@H]2CCCNC2)c2cc(-c3ccc(F)c(F)c3)sc12", "logD": 2.17}
{"smiles": "Clc1ccc2[nH]ccc2c1", "logD": 3.28}
{"smiles": "CSc1nc(C(N)=O)c(N)s1", "logD": 1.21}
{"smiles": "COc1ccc(-c2coc3cc(OC)cc(OC)c3c2=O)cc1", "note": "[BIOCHANIN A, DIMETHYL ETHER]", "logD": 3.05}
{"smiles": "FC(F)(F)c1nnc2ccc(N3CCCCC3)nn12", "logD": 3}
{"smiles": "C=CCc1cc(NC(C)=O)ccc1OCCCNC(C)C", "logD": -0.01}
{"smiles": "COc1cc(F)ccc1-c1cncc(CNC(=O)C2CC2)c1", "logD": 2.9}
{"smiles": "COc1cc(C(=O)NCc2ccc(OCCN(C)C)cc2)cc(OC)c1OC", "note": "[TRIMETHOBENZAMIDE]", "logD": 0.74}
{"smiles": "CN1CCN(CC(=O)Nc2c(C#N)cnn2-c2ccccc2)CC1", "logD": 0}
{"smiles": "O=C1CCOc2nc(C#CC3CCCCC3)ccc21", "logD": 3.3}
{"smiles": "Clc1cccc(Nc2ncnc3ccccc23)c1", "logD": 3.9}
{"smiles": "O=c1ccoc2ccccc12", "note": "[CHROMONE]", "logD": 1.4}
{"smiles": "CN1CCCC(CN2CCN(C(=O)Nc3ccc(Cl)c(Cl)c3)CC2)C1", "note": "(stereo not drawn)", "logD": 1.98}
{"smiles": "C=C(CC)C(=O)c1ccc(OCC(=O)O)c(Cl)c1Cl", "note": "[ETHACRYNIC ACID]", "logD": 0.02}
